Test results: patent publication US12459934B2, “Pesticidal compounds” (BASF SE, priority 2018, dated 2025)

Legend:
Assay type in all cases: in vivo
[1] = test system: boll weevil (Anthonomus grandis); test: Boll weevil control, 96-well microtiter plate with insect diet and eggs; conditions: 120 h, sprayed onto insect diet, assessed after 5 days, read-out: mortality in comparison with untreated controls (egg and larval mortality)
Protocol: For evaluating control of boll weevil (Anthonomus grandis) the test unit consisted of 96-well-microtiter plates containing an insect diet and 5-10 A. grandis eggs.
The compounds were formulated using a solution containing 75% v/v water and 25% v/v DMSO. Different concentrations of formulated compounds were sprayed onto the insect diet at 5 μl, using a custom built micro atomizer, at two replications.
After application, microtiter plates were incubated at about 25±1° C. and about 75±5% relative humidity for 5 days. Egg and larval mortality was then visually assessed.

[2] = test system: Southern Armyworm (Spodoptera eridania), 2nd Instar Larvae; test: Southern armyworm 2nd instar larvae on sprayed lima bean plants; conditions: 96 h, 4 days after treatment, read-out: mortality in comparison with untreated controls
Protocol: (§1) The active compounds were formulated in cyclohexanone as a 10,000 ppm solution supplied in tubes. The tubes were inserted into an automated electrostatic sprayer equipped with an atomizing nozzle and they served as stock solutions for which lower dilutions were made in 50% acetone:50% water (v/v). A nonionic surfactant (Kinetic®) was included in the solution at a volume of 0.01% (v/v).
Lima bean plants (variety Sieva) were grown 2 plants to a pot and selected for treatment at the 1st true leaf stage. Test solutions were sprayed onto the foliage by an automated electrostatic plant sprayer equipped with an atomizing spray nozzle. The plants were dried in the sprayer fume hood and then removed from the sprayer. Each pot was placed into perforated plastic bags with a zip closure. About 10 to 11 armyworm larvae were placed into the bag and the bags zipped closed. Test plants were maintained in a growth room at about 25° C. and about 20-40% relative humidity for 4 days, avoiding direct exposure to fluorescent light (24 hour photoperiod) to prevent trapping of heat inside the bags. Mortality and reduced feeding were assessed 4 days after treatment, compared to untreated control plants.

[3] = test system: Western Flower Thrips (Frankliniella occidentalis); test: Western flower thrips on leaf discs of sprayed cotton plants; conditions: foliar, 48 h, 2 DAT (days after treatment), read-out: mortality in comparison with untreated controls
Protocol: The active compounds were formulated by a Tecan liquid handler in 100% cyclohexanone as a 10,000 ppm solution supplied in tubes. The 10,000 ppm solution was serially diluted in 100% cyclohexanone to make interim solutions. These served as stock solutions for which final dilutions were made by the Tecan in 50% acetone:50% water (v/v) into 10 or 20 ml glass vials. A nonionic surfactant (Kinetic®) was included in the solution at a volume of 0.01% (v/v). The vials were then inserted into an automated electrostatic sprayer equipped with an atomizing nozzle for application to plants/insects.
Small (˜2″ in height) cotton plants are sprayed with test compounds at concentrations ranging from 300 to 0.01 ppm in acetone/water through the automated VPS. After drying, cotton leaves are removed and circular leaf discs (−1 cm diameter) are punched from the treated surface and transferred to clean 20 mL scintillation vials. Ten Western flower thrips (FRANOC) are aspirated into each scintillation vial. The vials with the leaf discs and thrips are kept in an upright incubator at 25° C. and 50% relative humidity with a 14:10 light:dark photoperiod. Each treatment is replicated twice.
Thrips mortality is assessed at 2 DAT (days after treatment), counting all thrips both dead and alive. [The average absolute mortality is calculated for each treatment.]

[4] = test system: yellow fever mosquito (Aedes aegypti); test: whole plant or invertebrate; conditions: 48 h, freshly hatched larvae in tap water, assessed after 2 days, read-out: mortality in comparison with untreated controls (larval mortality)
Protocol: For evaluating control of yellow fever mosquito (Aedes aegypti) the test unit consisted of 96-well-microtiter plates containing 200 μl of tap water per well and 5-15 freshly hatched A. aegypti larvae. The active compounds were formulated using a solution containing 75% (v/v) water and 25% (v/v) DMSO. Different concentrations of formulated compounds or mixtures were sprayed onto the insect diet at 2.5 μl, using a custom built micro atomizer, at two replications.
After application, microtiter plates were incubated at 28+1° C., 80+5% RH for 2 days. Larval mortality was then visually assessed.

[5] = test system: tobacco budworm (Heliothis virescens); test: Tobacco budworm control, 96-well microtiter plate with insect diet and eggs; conditions: 120 h, sprayed onto insect diet, assessed after 5 days, read-out: mortality in comparison with untreated controls (egg and larval mortality)
Protocol: For evaluating control of tobacco budworm (Heliothis virescens) the test unit consisted of 96-well-microtiter plates containing an insect diet and 15-25 H. virescens eggs.
The compounds were formulated using a solution containing 75% v/v water and 25% v/v DMSO. Different concentrations of formulated compounds were sprayed onto the insect diet at 10 μl, using a custom built micro atomizer, at two replications.
After application, microtiter plates were incubated at about 28±1° C. and about 80±5% relative humidity for 5 days. Egg and larval mortality was then visually assessed.

[6] = test system: Orchid Thrips (Dichromothrips corbetti); test: Orchid thrips, floral-immersion technique; conditions: dipped orchid petals, adult thrips, 72 hours after treatment, read-out: mortality in comparison with untreated controls
Protocol: Dichromothrips corbetti adults used for bioassay were obtained from a colony maintained continuously under laboratory conditions. For testing purposes, the test compound is diluted in a 1:1 mixture of acetone:water (vol:vol), plus Kinetic® HV at a rate of 0.01% v/v.
Thrips potency of each compound was evaluated by using a floral-immersion technique. All petals of individual, intact orchid flowers were dipped into treatment solution and allowed to dry in Petri dishes. Treated petals were placed into individual re-sealable plastic along with about 20 adult thrips. All test arenas were held under continuous light and a temperature of about 28° C. for duration of the assay. After 3 days, the numbers of live thrips were counted on each petal. The percent mortality was recorded 72 hours after treatment.

[7] = test system: Diamond Back Moth (Plutella xylostella); test: Diamond back moth, cabbage leaf dip test; conditions: foliar, 3rd instar larvae, 72 hours after treatment, read-out: mortality in comparison with untreated controls
Protocol: The active compound is dissolved at the desired concentration in a mixture of 1:1 (vol:vol) distilled water:acetone. Surfactant (Alkamuls® EL 620) is added at a rate of 0.1% (vol/vol). The test solution is prepared at the day of use.
Leaves of cabbage were dipped in test solution and air-dried. Treated leaves were placed in petri dish enlined with moist filter paper and inoculated with ten 3rd instar larvae. Mortality was recorded 72 hours after treatment. Feeding damages were also recorded using a scale of 0-100%.

[8] = test system: Silverleaf Whitefly (Bemisia argentifolii) (Adults); test: Silverleaf whitefly adults on sprayed cotton plants; conditions: 72 h, 3 days after treatment, read-out: mortality in comparison with untreated controls
Excerpt: as §1, with “non-ionic” for “nonionic”
Cotton plants at the cotyledon stage (one plant per pot) were sprayed by an automated electrostatic plant sprayer equipped with an atomizing spray nozzle. The plants were dried in the sprayer fume hood and then removed from the sprayer. Each pot was placed into a plastic cup and about 10 to 12 whitefly adults (approximately 3-5 days old) were introduced. The insects were collected using an aspirator and a nontoxic Tygon® tubing connected to a barrier pipette tip. The tip, containing the collected insects, was then gently inserted into the soil containing the treated plant, allowing insects to crawl out of the tip to reach the foliage for feeding. Cups were covered with a reusable screened lid. Test plants were maintained in a growth room at about 25° C. and about 20-40% relative humidity for 3 days, avoiding direct exposure to fluorescent light (24-hour photoperiod) to prevent trapping of heat inside the cup. Mortality was assessed 3 days after treatment, compared to untreated control plants.

CC(C)c1ccccc1NC(=S)N/N=C/c1ccc2c(C(=O)Nc3ccc(OC(F)(F)F)cc3)nccc2c1 [Compound C-1, 6-[(E)-[(2-isopropylphenyl)carbamothioylhydrazono]methyl]-N-[4-(trifluoromethoxy)phenyl]isoquinoline-1-carboxamide]
> 75%: mortality at 800 ppm [1] | mortality at 300 ppm [2] | mortality at 300 ppm [3] | mortality at 800 ppm [4] | mortality at 800 ppm [5] | mortality at 300 ppm [6] | mortality at 300 ppm [7]

CC(C)c1ccccc1N1C(=O)CS/C1=N\N=C\c1ccc2c(C(=O)Nc3ccc(OC(F)(F)F)cc3)nccc2c1 [Compound C-2, 6-[(E)-[(Z)-[3-(2-isopropylphenyl)-4-oxo-thiazolidin-2-ylidene]hydrazono]methyl]-N-[4-(trifluoromethoxy)phenyl]isoquinoline-1-carboxamide]
> 75%: mortality at 300 ppm [8] | mortality at 800 ppm [1] | mortality at 300 ppm [2] | mortality at 300 ppm [3] | mortality at 800 ppm [4] | mortality at 800 ppm [5] | mortality at 300 ppm [6] | mortality at 300 ppm [7]
